Laboratory results taken from patent publication US7608718B2, “4,5-dihydro-1H-pyrazole derivatives having potent CB1-antagonistic activity” (Solvay Pharmaceuticals B.V., priority 2001, dated 2009).

melting point [°C] | SMILES
142 to 144 | O=S(=O)(N=C(NC1CC1)N1CC(c2ccccc2)C(c2ccc(Cl)cc2)=N1)N1CCCCC1 (centres unmarked) [Example 56, 3-(4-Chlorophenyl)-N-cyclopropyl-4-phenyl-N′-((piperidin-1-yl)sulfonyl)-4,5-dihydro-1H-pyrazole-1-carboxamidine]
180 to 182 | CCN(CC)S(=O)(=O)N=C(NC)N1CC(O)(c2ccccc2)C(c2ccc(Cl)cc2)=N1 (centres unmarked) [Example 57, 3-(4-Chlorophenyl)-N′-((diethylamino)sulfonyl)-N-methyl-4-hydroxy-4-phenyl-4,5-dihydro-1H-pyrazole-1-carboxamidine]
122 to 123 | CCN(CC)S(=O)(=O)N=C(NC)N1CC(c2ccccc2)C(c2ccc(Cl)s2)=N1 (centres unmarked) [Example 58, 3-(5-Chlorothien-2-yl)-N′-((diethylamino)sulfonyl)-N-methyl-4-phenyl-4,5-dihydro-1H-pyrazole-1-carboxamidine]
169 to 170 | CC(C)NC(=NS(=O)(=O)N(C)C)N1CC(c2ccccc2)C(c2ccc(Cl)cc2)=N1 (centres unmarked) [Example 59, 3-(4-Chlorophenyl)-N′-((dimethylamino)sulfonyl)-N-isopropyl-4-phenyl-4,5-dihydro-1H-pyrazole-1-carboxamidine]
144 to 146 | CN1CCC(NC(=NS(=O)(=O)N(C)C)N2CC(c3ccccc3)C(c3ccc(Cl)cc3)=N2)CC1 (centres unmarked) [Example 60, 3-(4-Chlorophenyl)-N′-((dimethylamino)sulfonyl)-N-(1-methylpiperidin-4-yl)-4-phenyl-4,5-dihydro-1H-pyrazole-1-carboxamidine]
135 to 137 | CCN(CC)S(=O)(=O)N=C(N(C)C)N1CC(O)(c2ccccc2)C(c2ccc(Cl)cc2)=N1 (centres unmarked) [Example 63, 3-(4-Chlorophenyl)-N′-((diethylamino)sulfonyl)-N,N-dimethyl-4-hydroxy-4-phenyl-4,5-dihydro-1H-pyrazole-1-carboxamidine]
159 to 160 | CCN(CC)S(=O)(=O)N=C(N(C)C)N1CC(c2ccccc2)C(c2ccc(F)cc2)=N1 (centres unmarked) [Example 64, N′-((Diethylamino)sulfonyl)-N,N-dimethyl-3-(4-fluorophenyl)-4-phenyl-4,5-dihydro-1H-pyrazole-1-carboxamidine]
162 to 165 | CCNC(=NS(=O)(=O)N(CC)CC)N1CC(O)(c2ccccc2)C(c2ccc(Cl)cc2)=N1 (centres unmarked) [Example 68, 3-(4-Chlorophenyl)-N′-((diethylamino)sulfonyl)-N-ethyl-4-hydroxy-4-phenyl-4,5-dihydro-1H-pyrazole-1-carboxamidine]
109 to 111 | CCN(CC)S(=O)(=O)N=C(NC)N1CC(c2ccncc2)C(c2ccc(Cl)cc2)=N1 (centres unmarked) [Example 71, N′-((Diethylamino)sulfonyl)-3-(4-chlorophenyl)-N-methyl-4-(pyridin-4-yl)-4,5-dihydro-1H-pyrazole-1-carboxamidine]
157 to 159 | CNC(=NS(=O)(=O)N(C)C)N1CC(c2cccnc2)C(c2ccc(Cl)cc2)=N1 (centres unmarked) [Example 72, 3-(4-Chlorophenyl)-N′-((dimethylamino)sulfonyl)-N-methyl-4-(pyridin-3-yl)-4,5-dihydro-1H-pyrazole-1-carboxamidine]
178 to 182 | CNC(=NS(=O)(=O)N(C)C)N1CC(c2ccncc2)C(c2ccc(Cl)cc2)=N1 (centres unmarked) [Example 74, 3-(4-Chlorophenyl)-N′-((dimethylamino)sulfonyl)-N-methyl-4-(pyridin-4-yl)-4,5-dihydro-1H-pyrazole-1-carboxamidine]
174 to 177 | CNC(=NS(=O)(=O)N1CCCCC1)N1CC(c2cccnc2)C(c2ccc(Cl)cc2)=N1 (centres unmarked) [Example 78, 3-(4-Chlorophenyl)-N-methyl-N′-((piperidin-1-yl)sulfonyl)-4-(pyridin-3-yl)-4,5-dihydro-1H-pyrazole-1-carboxamidine]
223 to 235 | CNC(=NS(=O)(=O)N1CCOCC1)N1CC(c2c(F)cccc2F)C(c2ccc(Cl)cc2)=N1 (centres unmarked) [Example 79, 3-(4-Chlorophenyl)-4-(2,6-difluorophenyl)-N-methyl-N′-((morpholin-4-yl)sulfonyl)-4,5-dihydro-1H-pyrazole-1-carboxamidine]
214 to 216 | CNC(=NS(=O)(=O)N(C)C)N1CC(c2c(F)cccc2F)C(c2ccc(Cl)cc2)=N1 (centres unmarked) [Example 80, 3-(4-Chlorophenyl)-4-(2,6-difluorophenyl)-N′-((dimethylamino)sulfonyl)-N-methyl-4,5-dihydro-1H-pyrazole-1-carboxamidine]
260 to 263 | CNC(=NS(=O)(=O)N1CCCCC1)N1CC(c2c(F)cccc2F)C(c2ccc(Cl)cc2)=N1 (centres unmarked) [Example 81, 3-(4-Chlorophenyl)-4-(2,6-difluorophenyl)-N-methyl-N′-((piperidin-1-yl)sulfonyl)-4,5-dihydro-1H-pyrazole-1-carboxamidine]
170 | CNC(=NS(=O)(=O)N1CCCCC1)N1CC(c2cccc(F)c2)C(c2ccc(Cl)cc2)=N1 (centres unmarked) [Example 82, 3-(4-Chlorophenyl)-4-(3-fluorophenyl)-N-methyl-N′-((piperidin-1-yl)sulfonyl)-4,5-dihydro-1H-pyrazole-1-carboxamidine]
223 to 225 | CNC(=NS(=O)(=O)N1CCCCC1)N1CC(c2ccccc2F)C(c2ccc(Cl)cc2)=N1 (centres unmarked) [Example 83, 3-(4-Chlorophenyl)-4-(2-fluorophenyl)-N-methyl-N′-((piperidin-1-yl)sulfonyl)-4,5-dihydro-1H-pyrazole-1-carboxamidine]
173 to 175 | CNC(=NS(=O)(=O)N(C)C)N1CC(c2ccccc2F)C(c2ccc(Cl)cc2)=N1 (centres unmarked) [Example 84, 3-(4-Chlorophenyl)-N′-((dimethylamino)sulfonyl)-4-(2-fluorophenyl)-N-methyl-4,5-dihydro-1H-pyrazole-1-carboxamidine]
110 | CNC(=NS(=O)(=O)N(C)C)N1CC(c2cccc(F)c2)C(c2ccc(Cl)cc2)=N1 (centres unmarked) [Example 85, 3-(4-Chlorophenyl)-N′-((dimethylamino)sulfonyl)-4-(3-fluorophenyl)-N-methyl-4,5-dihydro-1H-pyrazole-1-carboxamidine]
165 to 168 | CNC(=NS(=O)(=O)N1CCOCC1)N1CC(c2ccccc2F)C(c2ccc(Cl)cc2)=N1 (centres unmarked) [Example 86, 3-(4-Chlorophenyl)-4-(2-fluorophenyl)-N-methyl-N′-((morpholin-4-yl)sulfonyl)-4,5-dihydro-1H-pyrazole-1-carboxamidine]
80 | CNC(=NS(=O)(=O)N1CCC(O)CC1)N1CC(c2ccccc2)C(c2ccc(Cl)cc2)=N1 (centres unmarked) [Example 88, 3-(4-Chlorophenyl)-N′-((4-hydroxypiperidin-1-yl)sulfonyl)-N-methyl-4-phenyl-4,5-dihydro-1H-pyrazole-1-carboxamidine]
158 | CCN(CCN(C)C)S(=O)(=O)N=C(SC)N1CC(c2ccccc2)C(c2ccc(Cl)cc2)=N1 (centres unmarked) [Example 95, 3-(4-Chlorophenyl)-N-(((2-(dimethylamino)ethyl)ethylamino)sulfonyl)-4-phenyl-4,5-dihydro-1H-pyrazole-1-carboximidothioic acid methyl ester]
245 | CSC(=NS(=O)(=O)N1CCC(N2CCCCC2)CC1)N1CC(c2ccccc2)C(c2ccc(Cl)cc2)=N1 (centres unmarked) [Example 97, 3-(4-Chlorophenyl)-N-(([1,4′]bipiperidin-1′-yl)sulfonyl)-4-phenyl-4,5-dihydro-1H-pyrazole-1-carboximidothioic acid methyl ester]
